# Reference: patent publication US12521393B2, “Cytotoxicity targeting chimeras for CCR2-expressing cells” (GLAXOSMITHKLINE INTELLECTUAL PROPERTY DEVELOPMENT LIMITED, priority 2021, dated 2026)
# Experiments:
# [1] = system: endogenous target monocytes in human PBMC; experiment: PBMC ex vivo monocyte depletion flow cytometry assay (Example 200); format: cell-based; settings: with anti-cotinine antibody (SEQ ID NO: 11/12), 18-24 hours, EC50 in molar, read-out: Ex Vivo Depletion Assay pEC50 (converted)
# Summary of the method: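 Monocyte depletion is reported as pEC50, averaged or given individually across runs, and read by flow cytometry staining CD45, CD14 and CD4 with a viability dye. Compounds, diluted four-fold over 11 points from 1 mM DMSO stocks, were combined with 30 μg/mL Fc-enhanced anti-cotinine antibody and human PBMC, then incubated 18-24 h at 37° C.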
# [2] = molecular target: anti-cotinine antibody (SEQ ID NO: 11/12, rabbit variable region with human IgG1 Fc DE mutation); experiment: SPR binding of anti-cotinine antibody to ARM compounds, Biacore T200, 37° C. (Example 202); settings: SPR Biacore T200, 37° C., pH 7.4, antibody SEQ ID NO: 11/12 captured on protein A; Kd in molar
# Protocol: Anti-cotinine antibodies having a heavy chain sequence of SEQ ID NO: 11 and a light chain sequence of SEQ ID NO: 12 (rabbit variable region with human IgG1 Fc domain containing a DE mutation (S239D/1332E)) were captured on one or more flow cells of a protein A sensor chip (Cytiva) using a Biacore T200 while reserving flow cell 1 as a reference. Following capture, a 3000 second wait step was included to reduce drift during compound analysis. ARM compounds of Formula (I) were then injected at 100 μL/min with 200 and 2000 second association and dissociation times. The entire experiment was run at 37° C. with running buffer containing 10 mM HEPES pH 7.4, 150 mM NaCl, 0.005% P20 and 1% DMSO. ARM compounds of Formula (I) were titrated with a top concentration of 200 nM using a 3-fold 5-point dilution series and a corresponding 5-injection buffer cycle was run for blank subtraction. Data were double referenced by subtracting the response of the reference flow cell from that of the antibody-containing flow cell and subsequently subtracting the referenced blank sensorgrams. Following compound analysis, the surface was regenerated using a 30 second injection of pH 1.5 glycine at a flow rate of 30 μL/min after which antibody was re-captured. The experiment was run using Biacore T200 control software and evaluated using Biacore T200 Evaluation software. Curves were fit with a 1:1 kinetic binding model to obtain kon (1/Ms), koff(1/s), Kd (M) determined as koff/kon, and residence time determined as 1/koff (s).
# Anti-cotinine antibody was tested for binding to ARMs compounds of Formula (I) of the invention in the above assay in or more experimental runs and the results are shown in Table 5 below. Affinity is reported as a pKd value. The pKd value is the negative log of the Kd value, wherein the Kd value is the dissociation constant measured in molar (M) as noted above. For compounds tested in more than one experimental run, the pKd value is reported as an average
SMILES,EC50 [1],pKd of Antibody for ARM Compound of Formula (I) [2]
"CC(C)N(C)[C@@H]1CC[C@H](N2CC[C@H](Nc3ncnc4ccc(C(F)(F)F)cc34)C2=O)[C@H](NC(=O)CCOCCNC(=O)[C@H]2CC[C@@H](NC(=O)CCOCCNC(=O)[C@H]3CC(=O)N(C)[C@@H]3c3cccnc3)CC2)C1 [Example 110, (2S,3S)-N-(2-(3-(((1S,4R)-4-((2-(3-(((1R,2S,5R)-5-(Isopropyl(methyl)amino)-2-((S)-2-oxo-3-((6-(trifluoromethyl)quinazolin-4-yl)amino)pyrrolidin-1-yl)cyclohexyl)amino)-3-oxopropoxy)ethyl)carbamoyl)cyclohexyl)amino)-3-oxopropoxy)ethyl)-1-methyl-5-oxo-2-(pyridin-3-yl)pyrrolidine-3-carboxamide]",50.1 pM,8.9085
"CC(C)N(C)[C@@H]1CC[C@H](N2CC[C@H](Nc3ncnc4ccc(C(F)(F)F)cc34)C2=O)[C@H](NC(=O)[C@H]2CC[C@@H](NC(=O)CCO[C@H]3CC[C@H](OCCNC(=O)[C@H]4CC(=O)N(C)[C@@H]4c4cccnc4)CC3)CC2)C1 [Example 112, (2S,3S)-N-(2-(((1S,4S)-4-(3-(((1S,4S)-4-(((1R,2S,5R)-5-(Isopropyl(methyl)amino)-2-((S)-2-oxo-3-((6-(trifluoromethyl)quinazolin-4-yl)amino)pyrrolidin-1-yl)cyclohexyl)carbamoyl)cyclohexyl)amino)-3-oxopropoxy)cyclohexyl)oxy)ethyl)-1-methyl-5-oxo-2-(pyridin-3-yl)pyrrolidine-3-carboxamide]",794 pM,9.343
"CC(C)N(C)[C@@H]1CC[C@H](N2CC[C@H](Nc3ncnc4ccc(C(F)(F)F)cc34)C2=O)[C@H](NC(=O)[C@H]2CC[C@H](NC(=O)CCO[C@H]3CC[C@H](OCCNC(=O)[C@H]4CC(=O)N(C)[C@@H]4c4cccnc4)CC3)CC2)C1 [Example 113, (2S,3S)-N-(2-(((1R,4S)-4-(3-(((1R,4R)-4-(((1R,2S,5R)-5-(Isopropyl(methyl)amino)-2-((S)-2-oxo-3-((6-(trifluoromethyl)quinazolin-4-yl)amino)pyrrolidin-1-yl)cyclohexyl)carbamoyl)cyclohexyl)amino)-3-oxopropoxy)cyclohexyl)oxy)ethyl)-1-methyl-5-oxo-2-(pyridin-3-yl)pyrrolidine-3-carboxamide]",3160 pM,9.767
"CC(C)N(C)[C@@H]1CC[C@H](N2CC[C@H](Nc3ncnc4ccc(C(F)(F)F)cc34)C2=O)[C@H](NC(=O)[C@H]2C[C@@H](NC(=O)CCO[C@H]3CC[C@H](OCCNC(=O)[C@H]4CC(=O)N(C)[C@@H]4c4cccnc4)CC3)C2)C1 [Example 115, (2S,3S)-N-(2-(((1S,4S)-4-(3-(((1S,3S)-3-(((1R,2S,5R)-5-(Isopropyl(methyl)amino)-2-((S)-2-oxo-3-((6-(trifluoromethyl)quinazolin-4-yl)amino)pyrrolidin-1-yl)cyclohexyl)carbamoyl)cyclobutyl)amino)-3-oxopropoxy)cyclohexyl)oxy)ethyl)-1-methyl-5-oxo-2-(pyridin-3-yl)pyrrolidine-3-carboxamide]",158 pM,9.363
"CC(C)N(C)[C@@H]1CC[C@H](N2CC[C@H](Nc3ncnc4ccc(C(F)(F)F)cc34)C2=O)[C@H](NC(=O)COCCNC(=O)COCCOCCNC(=O)CCNC(=O)[C@H]2CC(=O)N(C)[C@@H]2c2cccnc2)C1 [Example 143, (2S,3S)-N-(1-(((1R,2S,5R)-5-(Isopropyl(methyl)amino)-2-((S)-2-oxo-3-((6-(trifluoromethyl)quinazolin-4-yl)amino)pyrrolidin-1-yl)cyclohexyl)amino)-1,7,16-trioxo-3,9,12-trioxa-6,15-diazaoctadecan-18-yl)-1-methyl-5-oxo-2-(pyridin-3-yl)pyrrolidine-3-carboxamide]",2510 pM,9.275
"CC(C)N(C)[C@@H]1CC[C@H](N2CC[C@H](Nc3ncnc4ccc(C(F)(F)F)cc34)C2=O)[C@H](NC(=O)COCCNC(=O)COCCNC(=O)CCOCCNC(=O)[C@H]2CC(=O)N(C)[C@@H]2c2cccnc2)C1 [Example 151, (2S,3S)-N-(1-(((1R,2S,5R)-5-(Isopropyl(methyl)amino)-2-((S)-2-oxo-3-((6-(trifluoromethyl)quinazolin-4-yl)amino)pyrrolidin-1-yl)cyclohexyl)amino)-1,7,13-trioxo-3,9,16-trioxa-6,12-diazaoctadecan-18-yl)-1-methyl-5-oxo-2-(pyridin-3-yl)pyrrolidine-3-carboxamide]",2000 pM,9.0755
"CC(C)N(C)[C@@H]1CC[C@H](N2CC[C@H](Nc3ncnc4ccc(C(F)(F)F)cc34)C2=O)[C@H](NC(=O)CCOCCOCCOCCNc2c(NCCNC(=O)[C@H]3CC(=O)N(C)[C@@H]3c3cccnc3)c(=O)c2=O)C1 [Example 168, (2S,3S)-N-(2-((2-((2-(2-(2-(3-(((1R,2S,5R)-5-(Isopropyl(methyl)amino)-2-((S)-2-oxo-3-((6-(trifluoromethyl)quinazolin-4-yl)amino)pyrrolidin-1-yl)cyclohexyl)amino)-3-oxopropoxy)ethoxy)ethoxy)ethyl)amino)-3,4-dioxocyclobut-1-en-1-yl)amino)ethyl)-1-methyl-5-oxo-2-(pyridin-3-yl)pyrrolidine-3-carboxamide]",1000 pM,9.06
"CC(C)N(C)[C@@H]1CC[C@H](N2CC[C@H](Nc3ncnc4ccc(C(F)(F)F)cc34)C2=O)[C@H](NC(=O)[C@H]2CC[C@@H](NC(=O)CCOCCNC(=O)COCCCNC(=O)[C@H]3CC(=O)N(C)[C@@H]3c3cccnc3)CC2)C1 [Example 175, (2S,3S)-N-(3-(2-((2-(3-(((1S,4s)-4-(((1R,2S,5R)-5-(Isopropyl(methyl)amino)-2-((S)-2-oxo-3-((6-(trifluoromethyl)quinazolin-4-yl)amino)pyrrolidin-1-yl)cyclohexyl)carbamoyl)cyclohexyl)amino)-3-oxopropoxy)ethyl)amino)-2-oxoethoxy)propyl)-1-methyl-5-oxo-2-(pyridin-3-yl)pyrrolidine-3-carboxamide]",631 pM,9.244
"CC(C)N(C)[C@@H]1CC[C@H](N2CC[C@H](Nc3ncnc4ccc(C(F)(F)F)cc34)C2=O)[C@H](NC(=O)CCCC(=O)N[C@H]2CC[C@H](CNC(=O)CCOCCNC(=O)[C@H]3CC(=O)N(C)[C@@H]3c3cccnc3)CC2)C1 [Example 180, N^1-((1R,2S,5R)-5-(isopropyl(methyl)amino)-2-((S)-2-oxo-3-((6-(trifluoromethyl)quinazolin-4-yl)amino)pyrrolidin-1-yl)cyclohexyl)-N^5-((1S,4R)-4-((3-(2-((2S,3S)-1-methyl-5-oxo-2-(pyridin-3-yl)pyrrolidine-3-carboxamido)ethoxy)propanamido)methyl)cyclohexyl)glutaramide]",1260 pM,9.249
"CC(C)N(C)[C@@H]1CC[C@H](N2CC[C@H](Nc3ncnc4ccc(C(F)(F)F)cc34)C2=O)[C@H](NC(=O)COCCNC(=O)CCNC(=O)CCOCCOCCNC(=O)[C@H]2CC(=O)N(C)[C@@H]2c2cccnc2)C1 [Example 181, (2S,3S)-N-(1-(((1R,2S,5R)-5-(Isopropyl(methyl)amino)-2-((S)-2-oxo-3-((6-(trifluoromethyl)quinazolin-4-yl)amino)pyrrolidin-1-yl)cyclohexyl)amino)-1,7,11-trioxo-3,14,17-trioxa-6,10-diazanonadecan-19-yl)-1-methyl-5-oxo-2-(pyridin-3-yl)pyrrolidine-3-carboxamide]",398 pM,9.1645
"CC(C)N(C)[C@@H]1CC[C@H](N2CC[C@H](Nc3ncnc4ccc(C(F)(F)F)cc34)C2=O)[C@H](NC(=O)[C@H]2CC[C@@H](NC(=O)CCOCCNC(=O)CCCCNC(=O)[C@H]3CC(=O)N(C)[C@@H]3c3cccnc3)CC2)C1 [Example 198, (2S,3S)-N-(5-((2-(3-(((1S,4s)-4-(((1R,2S,5R)-5-(Isopropyl(methyl)amino)-2-((S)-2-oxo-3-((6-(trifluoromethyl)quinazolin-4-yl)amino)pyrrolidin-1-yl)cyclohexyl)carbamoyl)cyclohexyl)amino)-3-oxopropoxy)ethyl)amino)-5-oxopentyl)-1-methyl-5-oxo-2-(pyridin-3-yl)pyrrolidine-3-carboxamide]",501 pM,9.3835
